Assay results from patent publication US8080657B2, “Compounds of reverse turn mimetics and the use thereof” (Choongwae Pharma Corporation, priority 2008, dated 2011).
Where two headings read alike, the source gives them in different places.

Tested on: Wnt signaling
Assay: TopFlash reporter gene bioassay in SW480 cells
Assay type: cell-based
Conditions: Homo sapiens, read-out: RGA, IC50 (μM) TopF
[1] = SW480, TopFlash reporter gene assay, inhibition of Wnt signaling

| IC50 [1] | Structure (SMILES) | IC50 (SW480) |
| --- | --- | --- |
| – | C=CCN1CC(=O)N2[C@@H](Cc3ccc(OP(=O)(O)O)cc3)C(=O)N(Cc3ccccc3SC)C[C@@H]2N1C(=O)NCc1ccccc1 [compound 42] | 0.66 ± 0.0079 µM |
| 2.48 ± 0.22 µM | C=CCN1CC(=O)N2[C@@H](Cc3ccc(O)cc3)C(=O)N(Cc3cccc(C(=O)NOC)c3)C[C@@H]2N1C(=O)NCc1ccccc1 [compound 182] | – |
| – | C=CCN1CC(=O)N2[C@@H](Cc3ccc(OP(=O)(O)O)cc3)C(=O)N(Cc3ccc(OC)cc3F)C[C@@H]2N1C(=O)NCc1ccccc1 [compound 216] | 3.8 ± 1.1 µM |
| 0.3 ± 0.06 µM | C=CCN1CC(=O)N2[C@@H](Cc3ccc(O)cc3)C(=O)N(Cc3cccc4c(-c5ccccc5)c[nH]c34)C[C@@H]2N1C(=O)NCc1ccccc1 [compound 10] | – |
| 1.55 ± 0.21 µM | C=CCOc1ccc(CN2C[C@H]3N(C(=O)CN(CC=C)N3C(=O)NCc3ccccc3)[C@@H](Cc3ccc(O)cc3)C2=O)cc1 [compound 123] | – |
| 2.01 ± 0.34 µM | C=CCOc1cccc(CN2C[C@H]3N(C(=O)CN(CC=C)N3C(=O)NCc3ccccc3)[C@@H](Cc3ccc(O)cc3)C2=O)c1 [compound 169] | – |
| 0.84 ± 0.09 µM | C=CCN1CC(=O)N2[C@@H](Cc3ccc(O)cc3)C(=O)N(Cc3csc4cc(NCCC)ccc34)C[C@@H]2N1C(=O)NCc1ccccc1 [compound 66] | – |
| 3.62 ± 0.65 µM | C=CCN1CC(=O)N2[C@@H](Cc3ccc(O)cc3)C(=O)N(Cc3cccc4ccn(Cc5cccc(N)c5)c34)C[C@@H]2N1C(=O)NCc1ccccc1 [compound 213] | – |
| 1.91 ± 0.28 µM | C=CCN1CC(=O)N2[C@@H](Cc3ccc(O)cc3)C(=O)N(Cc3cccc(-c4ccc(F)cc4)n3)C[C@@H]2N1C(=O)NCc1ccccc1 [compound 141] | – |
| 0.92 ± 0.14 µM | C=CCN1CC(=O)N2[C@@H](Cc3ccc(O)cc3)C(=O)N(Cc3csc4cc([N+](=O)[O-])ccc34)C[C@@H]2N1C(=O)NCc1ccccc1 [compound 75] | – |
| 49.8 ± 4.8 µM | C=CCN1CC(=O)N2[C@@H](Cc3ccc(O)cc3)C(=O)N(Cc3ccc(F)c4scnc34)C[C@@H]2N1C(=O)NCC1CCCCC1 [compound 238] | – |
| 1.35 ± 0.15 µM | C=CCN1CC(=O)N2[C@@H](Cc3ccc(O)cc3)C(=O)N(Cc3cccc(N(C)C(=O)OC)c3)C[C@@H]2N1C(=O)NCc1ccccc1 [compound 109] | – |
| 0.52 ± 0.06 µM | C=CCN1CC(=O)N2[C@@H](Cc3ccc(O)cc3)C(=O)N(Cc3ccc(F)c(-c4cccnc4)c3)C[C@@H]2N1C(=O)NCc1ccccc1 [compound 28] | – |
| 14.1 ± 2.3 µM | C=CCN1CC(=O)N2[C@@H](Cc3ccc(O)cc3)C(=O)N(Cc3cn(CCC)c4ccccc34)C[C@@H]2N1C(=O)NCc1ccccc1 [compound 159] | – |
| 0.97 ± 0.18 µM | C=CCN1CC(=O)N2[C@@H](Cc3ccc(O)cc3)C(=O)N(Cc3cccc(-c4ccccc4OC)n3)C[C@@H]2N1C(=O)NCc1ccccc1 [compound 81] | – |
| – | C=CCOc1ccc(CN2C[C@H]3N(C(=O)CN(CC=C)N3C(=O)NCc3ccccc3)[C@@H](Cc3ccc(OP(=O)(O)O)cc3)C2=O)cc1 [compound 136] | 1.83 ± 0.32 µM |
| 2.67 ± 0.59 µM | C=CCN1CC(=O)N2[C@@H](Cc3ccc(O)cc3)C(=O)N(Cc3ccccc3S(C)(=O)=O)C[C@@H]2N1C(=O)NCc1ccccc1 [compound 188] | – |
| 1.64 ± 0.27 µM | C=CCN1CC(=O)N2[C@@H](Cc3ccc(O)cc3)C(=O)N(Cc3ccc(OC)c(Br)c3)C[C@@H]2N1C(=O)NCc1ccccc1 [compound 129] | – |
| – | C=CCN1CC(=O)N2[C@@H](Cc3ccc(O)cc3)C(=O)N(Cc3csc4ccc(NS(C)(=O)=O)cc34)C[C@@H]2N1C(=O)NCc1ccccc1 [compound 246] | 6.59 ± 0.86 µM |
| 1.04 ± 0.18 µM | C=CCN1CC(=O)N2[C@@H](Cc3ccc(O)cc3)C(=O)N(Cc3cccc(C(=O)NCCOC)c3)C[C@@H]2N1C(=O)NCc1ccccc1 [compound 91] | – |
| 1.54 ± 0.07 µM | C=CCN1CC(=O)N2[C@@H](Cc3ccc(O)cc3)C(=O)N(Cc3cccc(Cl)c3N(C)C)C[C@@H]2N1C(=O)NCc1ccccc1 [compound 122] | – |

| IC50 [1] | Structure (SMILES) | IC50 (SW480) |
| --- | --- | --- |
| 26.1 ± 7.1 µM | C=CCN1CC(=O)N2[C@@H](Cc3ccc(O)cc3)C(=O)N(Cc3csc4cc(NC(N)=O)ccc34)C[C@@H]2N1C(=O)NCc1ccccc1 [compound 201] | – |
| 1 ± 0.22 µM | C=CCN1CC(=O)N2[C@@H](Cc3ccc(O)cc3)C(=O)N(Cc3csc4ccc(NC(C)=O)cc34)C[C@@H]2N1C(=O)NCc1ccccc1 [compound 85] | – |
| 1.61 ± 0.31 µM | C=CCN1CC(=O)N2[C@@H](Cc3ccc(O)cc3)C(=O)N(Cc3cccc(-c4ccccc4OC)c3)C[C@@H]2N1C(=O)NCc1ccccc1 [compound 127] | – |
| 0.42 ± 0.04 µM | C=CCN1CC(=O)N2[C@@H](Cc3ccc(O)cc3)C(=O)N(Cc3ccccc3SC)C[C@@H]2N1C(=O)NCc1ccccc1 [compound 17] | – |
| 3.18 ± 0.75 µM | C=CCN1CC(=O)N2[C@@H](Cc3ccc(O)cc3)C(=O)N(Cc3csc4c(N)cccc34)C[C@@H]2N1C(=O)NCc1ccccc1 [compound 206] | – |
| 2.37 ± 0.22 µM | C=CCN1CC(=O)N2[C@@H](Cc3ccc(O)cc3)C(=O)N(Cc3ccnc(-c4ccccc4)n3)C[C@@H]2N1C(=O)NCc1ccccc1 [compound 176] | – |
| 6.66 ± 0.88 µM | C=CCN1CC(=O)N2[C@@H](Cc3ccc(O)cc3)C(=O)N(Cc3ccc(OCCC)cc3)C[C@@H]2N1C(=O)NCc1ccccc1 [compound 247] | – |
| 0.67 ± 0.09 µM | C=CCN1CC(=O)N2[C@@H](Cc3ccc(O)cc3)C(=O)N(Cc3csc4cc(NC(=O)OC)ccc34)C[C@@H]2N1C(=O)NCc1ccccc1 [compound 45] | – |
| 2.01 ± 0.2 µM | C=CCN1CC(=O)N2[C@@H](Cc3ccc(O)cc3)C(=O)N(Cc3cccc(C(N)=O)n3)C[C@@H]2N1C(=O)NCc1ccccc1 [compound 168] | – |
| 2.42 ± 0.32 µM | C=CCN1CC(=O)N2C(CN(Cc3cccc(-c4ccc(SC)cc4)n3)C(=O)[C@@H]2Cc2ccc(O)cc2)N1C(=O)NCc1ccccc1 (some centres unmarked) [compound 179] | – |
| 0.54 ± 0.06 µM | C=CCN1CC(=O)N2[C@@H](Cc3ccc(O)cc3)C(=O)N(Cc3ccccc3[N+](=O)[O-])C[C@@H]2N1C(=O)NCc1ccccc1 [compound 30] | – |
| 22.2 ± 5.69 µM | C=CCN1CC(=O)N2[C@@H](Cc3ccc(O)cc3)C(=O)N(Cc3cccnc3-c3cccnc3)C[C@@H]2N1C(=O)NCc1ccccc1 [compound 198] | – |
| 8.43 ± 2.07 µM | C=CCN1CC(=O)N2[C@@H](Cc3ccc(O)cc3)C(=O)N(Cc3cccc(C(=O)Nc4cc[nH]n4)c3)C[C@@H]2N1C(=O)NCc1ccccc1 [compound 260] | – |
| 0.7 ± 0.26 µM | C=CCN1CC(=O)N2[C@@H](Cc3ccc(O)cc3)C(=O)N(Cc3cccc(C(=O)NC)n3)C[C@@H]2N1C(=O)NCc1ccccc1 [compound 48] | – |
| 2.47 ± 0.37 µM | C=CCN1CC(=O)N2[C@@H](Cc3ccc(O)cc3)C(=O)N(Cc3cccc(NS(C)(=O)=O)c3)C[C@@H]2N1C(=O)NCc1ccccc1 [compound 181] | – |
| 0.34 ± 0.12 µM | C=CCN1CC(=O)N2[C@@H](Cc3ccc(O)cc3)C(=O)N(Cc3cccc(-c4cccnc4)c3)C[C@@H]2N1C(=O)NCc1ccccc1 [compound 12] | – |
| 0.52 ± 0.04 µM | C=CCN1CC(=O)N2[C@@H](Cc3ccc(O)cc3)C(=O)N(Cc3cccc(C(=O)NCC4CC4)c3)C[C@@H]2N1C(=O)NCc1ccccc1 [compound 25] | – |
| 25.9 ± 3.38 µM | C=CCN1CC(=O)N2[C@@H](Cc3ccc(O)cc3)C(=O)N(Cc3cccnc3N3CCC(N4CCCC4)CC3)C[C@@H]2N1C(=O)NCc1ccccc1 [compound 199] | – |
| 9.11 ± 1.82 µM | C=CCN1CC(=O)N2[C@@H](Cc3ccc(O)cc3)C(=O)N(Cc3ccnc(N)n3)C[C@@H]2N1C(=O)NCc1ccccc1 [compound 264] | – |
| 1.73 ± 0.35 µM | C=CCN1CC(=O)N2[C@@H](Cc3ccc(O)cc3)C(=O)N(Cc3cccc(-c4ccc(OC)cc4)n3)C[C@@H]2N1C(=O)NCc1ccccc1 [compound 134] | – |
